Key:
male Sprague-Dawley rats = assay type: in vivo, rat; conditions: for Sexual dysfunction (MED mg/kg): male, Sprague-Dawley, rat, in vivo, 30 min; for reduction of the number of penile erections relative to vehicle treated animals: sexually experienced male rats, female stimuli present, i.p. once daily
Excerpt: In summary, male rats were allowed access to sexually receptive females during a single overnight mating session and then administered antidepressants with varying degrees of clinically reported sexual deficits. […] Animals
Intact male Sprague-Dawley rats (Charles River Laboratories) arrived at 7 weeks of age and were allowed to habituate for one week prior to sexual experience or behavioral testing. Rats were group housed in same-sex colony rooms with food and water provided ad libitum. All animals were maintained under a 12:12 light-dark cycle (lights on at 6:00 am) with behavioral experiments performed during the light hours beginning at noon.
Ovariectomized female Long-Evans rats (Charles River Laboratories) were individually housed and brought into behavioral estrus weekly by subcutaneous injection of 25 ug 17-B estradiol benzoate in 0.1 ml corn oil 48 hours prior to testing, followed by subcutaneous administration of 2.5 mg progesterone in 0.1 ml corn oil 4 to 6 hours before testing.
For subjects assigned into the sexually experienced group, the following procedures were performed. Individual male rats were placed into the home cage of a a sexually receptive female for overnight mating sessions. The cage was a Plexiglas cage measuring 10×12 inches, with food and water ad libitum. Mating pairs were randomly assigned. […] Following overnight mating sessions, males and females were separated from each other and placed back into same-sex colony rooms where they were group-housed until the time of behavioral testing.
To determine the effects of female stimuli on non-contact penile erections, sexually receptive females were brought into the testing room 30 minutes prior to the start of behavioral testing in order to provide female visual, olfactory, and auditory stimuli for males. The testing arena for observing non-contact penile erections in male rats consisted of an empty rat size Plexiglas cage (11×10 inches) containing no bedding, with an aerated plastic lid and a total ceiling height of 12 inches. […] A penile erection consisted of observation of the male rat in a hunched position grasping the penis with the forepaws and followed by a series of pelvic thrusts. The number of penile erections were quantified over a 30 minute observation session.
Following sexual experience (as described above), male subjects (n=8 per group) were administered either 10 mg/kg/day fluoxetine or saline vehicle for 14 days. On the 14th day, fluoxetine treatment was co-administered with either saline or apomorphine (0.1-0.3 mg/kg, sc) or yohimbine (0.1-0.3 mg/kg, sc) or sildenafil (0.1-0.3 mg/kg, sc) in separate experiments. Non-contact penile erections were evaluated in 30 minute test sessions in the presence of sexually receptive female rats.
Fluoxetine HCl (Tocris), desipramine (Sigma, St. Louis, Mo.) and bupropion HCl (Toronto Research Chemicals, Canada) were dissolved in 0.9% sterile saline vehicle and injected intraperitoneally (i.p.) once daily. On the day of behavioral testing, antidepressants were administered intraperitoneally (i.p.) as one hour pretreatments. For reversal experiments, apomorphine (Sigma, St. Louis, Mo.), yohimbine (Sigma, St. Louis, Mo.) or sildenafil (Toronto Research Chemicals, Canada) were used. Apomorphine was dissolved in 0.9% sterile saline vehicle and injected subcutaneously (s.c.). Yohimbine was dissolved in dH2O facilitated with 1N HCl, followed by addition of 1N NaOH for titration (pH=7) and administered intraperitoneally (i.p.). Sildenafil was dissolved in 0.9% sterile saline vehicle and administered intraperitoneally (i.p.). With the exception of fluoxetine which was administered in a dose volume of 2 ml/kg, all other test compounds were administered in a dose volume of 1 ml/kg. On the day of behavioral testing, both fluoxetine and the reversal agent (apomorphine, yohimbine, or sildenafil) were co-administered as 0 minute pretreatments. […]

[1] = Antidepressant-like effects (MED), Table 2; assay type: in vivo; conditions: minimal effective dose
Excerpt: Table 2, below, summarizes the dose at which antidepressant-like effects are observed, the dose at which sexual dysfunction occurs, and the therapeutic window.

[2] = test system: male Sprague Dawley CD rats; assay: Reversal of MK-801 induced deficits in PPI; conditions: data generated within the applicant's lab, doses not given

| Sexual dysfunction (MED mg/kg) (male Sprague-Dawley rats) [mg/kg] | SMILES | reduction of the number of penile erections relative to vehicle treated animals (male Sprague-Dawley rats) [%] | Antidepressant-like effects (MED mg/kg) [1] [mg/kg] | attenuation of MK-801 induced deficit in PPI (reference antipsychotics) [2] |
| --- | --- | --- | --- | --- |
| >20 | CC(NC(C)(C)C)C(=O)c1cccc(Cl)c1 (stereo not shown) [Bupropion, bupropion] | 9 | 20 |  |
| 10 | CNCCCN1c2ccccc2CCc2ccccc21 [Desipramine, desipramine] | 43 | 10 |  |
| 10 | CNCCC(Oc1ccc(C(F)(F)F)cc1)c1ccccc1 (stereo not shown) [Fluoxetine, fluoxetine] | 72 | 10 |  |
|  | Cc1nc2n(c(=O)c1CCN1CCC(c3noc4cc(F)ccc34)CC1)CCCC2 [risperidone, reference compound] |  |  | will attenuate |

Reference: patent US20070225278A1, “Methods for treating cognitive and other disorders” (priority 2006, published 2007)
